Source: publication PMC11284787, “Ligand-Directed Labeling of the Adenosine A1 Receptor in Living Cells” (Journal of Medicinal Chemistry, 2024)
Read-outs that look alike come from different tables or passages of the source.

Columns and labels:
[1] = target: T1, NL-hA1AR (Homo sapiens, UniProt P30542); assay: NanoBRET dissociation kinetics, NL-hA1AR HEK293T cells; format: binding; details: cells prelabeled with 250 nM for 5 h, BRET monitored 60 min
T1 construct: expressed in transfected cells
T1 sequence (P30542 1-326): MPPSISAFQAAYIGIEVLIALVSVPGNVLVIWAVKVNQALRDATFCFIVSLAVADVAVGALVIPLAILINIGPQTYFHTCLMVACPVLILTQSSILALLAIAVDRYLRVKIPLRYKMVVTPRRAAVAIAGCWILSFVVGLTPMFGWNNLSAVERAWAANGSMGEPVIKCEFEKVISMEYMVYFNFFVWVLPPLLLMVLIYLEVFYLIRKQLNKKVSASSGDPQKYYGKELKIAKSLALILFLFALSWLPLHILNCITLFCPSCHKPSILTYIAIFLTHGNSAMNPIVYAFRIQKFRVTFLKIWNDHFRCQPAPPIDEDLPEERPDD
Procedure: Figure 3 Molecular pharmacology and biochemical characterization of 11 and 12. NanoBRET ligand-binding data were measured in HEK293 cells stably expressing the human NL-A1AR (A–C) or rat NL-A1AR (D–F). […] Data were normalized to maximal BRET signals in the absence of unlabeled competing ligands (total binding, TB). (C, F) NanoBRET dissociation kinetics experiments with 11 (SulfoCy5) performed in human and rat NL-A1AR HEK293T cells, respectively. Cells were treated with 250 nM 11 (SulfoCy5, lilac open circles) for 5 h and CA200645 (black open triangles) for 2 h. […] TS-SNAP-A1AR was purified and separated on an SDS-PAGEgel gel, and direct Cy5 fluorescence was visualized using in-gel fluorescence. […]
The small reduction in the BRET signal observed toward the end of the reads could be mostly likely ascribed to substrate (furimazine) consumption. […] To confirm covalent labeling of A1AR by 11 and 12, HEK293G cells stably expressing a Twin-Strep-SNAP-A1AR(TS-SNAP-A1R) construct were treated with 11 or 12 prior to purification, separation by sodium dodecyl sulfate-polyacrylamide gel electrophoresis (SDS-PAGE) and visualization of labeled samples by in-gel fluorescence (Figure 3G). […]
(§1) 37 °C for kinetic binding experiments. Emissions were read at 420 nm (80 nm bandpass; […]

[2] = target: T2, NL-hA2BAR (Homo sapiens, UniProt P29275); assay: NanoBRET saturation ligand-binding assay, NL-hA2BAR
T2 construct: expressed in transfected cells
T2 sequence (P29275 1-332): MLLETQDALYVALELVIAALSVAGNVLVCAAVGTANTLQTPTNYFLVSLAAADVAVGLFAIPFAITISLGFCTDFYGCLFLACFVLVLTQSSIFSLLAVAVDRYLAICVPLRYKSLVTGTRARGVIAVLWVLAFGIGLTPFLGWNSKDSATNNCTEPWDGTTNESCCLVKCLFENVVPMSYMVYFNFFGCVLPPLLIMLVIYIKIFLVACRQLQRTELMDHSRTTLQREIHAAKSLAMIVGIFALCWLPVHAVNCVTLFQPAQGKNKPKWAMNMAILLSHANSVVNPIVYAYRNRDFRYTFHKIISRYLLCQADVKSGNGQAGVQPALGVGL
Procedure: Probes 11 and 12 were further evaluated for their ability to bind the other three adenosine receptor subtypes (NL-A2AAR, NL-A2BAR, and NL-A3AR), and their ligand-binding properties were quantified in the NanoBRET saturation and inhibition binding assays, respectively (Table 1 and Figure 4).
(§2) NanoBRET binding assay. All NanoBRET experiments were performed in white flat […]
as §1
(§3) the SulfoCy5-labelled probe. […]
(§4) nm emission by the 420 nm emission. The term “raw BRET ratio” refers to the unprocessed data as no background ratio has been subtracted. In all NanoBRET binding […]
(§5) competitive antagonist selective for the adenosine receptor under investigation […]
(§6) MRS1220 for the A3AR). HEK293T cells stably/transiently expressing Nluc-AR were […]
(§7) were incubated for 1 h at 37 °C. […]
NanoBRET saturation binding assay. Total and nonspecific saturation binding curves were fit simultaneously using the following equation:
BRET ratio = Bmax[B] + M(B) + C […]
Uninhibited specific binding = 100 ― 100 x [A]

[3] = target: T3, NL-rA1AR (Rattus norvegicus, UniProt P25099); assay: NanoBRET saturation ligand-binding assay, NL-rA1AR
T3 construct: expressed in transfected cells
T3 sequence (P25099 1-326): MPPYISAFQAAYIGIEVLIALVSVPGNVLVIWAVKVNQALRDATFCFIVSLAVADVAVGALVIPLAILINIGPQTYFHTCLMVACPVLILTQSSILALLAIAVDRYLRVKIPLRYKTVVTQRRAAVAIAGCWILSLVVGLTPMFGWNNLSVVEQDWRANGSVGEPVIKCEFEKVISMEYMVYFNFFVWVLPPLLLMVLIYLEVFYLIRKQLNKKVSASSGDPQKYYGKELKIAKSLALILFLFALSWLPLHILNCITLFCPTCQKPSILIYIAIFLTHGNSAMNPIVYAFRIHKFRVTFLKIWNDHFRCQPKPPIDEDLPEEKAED
Procedure: The ligand-binding properties of the newly synthesized probes were assessed in a series of pharmacological assays. Initially, a NanoBRET[47],[48] saturation binding experiment was used to evaluate the binding affinity of ligand-directed probes functionally labeled with the SulfoCy5 fluorophore (11) to the NanoLuc(NL)-tagged[49] hA1AR expressed in HEK293T cells.
as §2, §1, §3, §4, §5, §6, §7
NanoBRET saturation binding assay. Total and nonspecific saturation binding curves were fit simultaneously using the following equation: […]

[4] = target: T4, NL-hA2AAR (Homo sapiens, UniProt P29274); assay: NanoBRET competition ligand-binding assay (CA200645 tracer), NL-hA2AAR; details: CA200645 (25 nM) tracer, transient HEK293T, mean ± SEM; read-out: affinity values pKi, NL-hA2AAR (converted)
T4 construct: expressed in transfected cells; host or cells: HEK293T, transient transfection (FuGENE)
T4 sequence (P29274 whole entry): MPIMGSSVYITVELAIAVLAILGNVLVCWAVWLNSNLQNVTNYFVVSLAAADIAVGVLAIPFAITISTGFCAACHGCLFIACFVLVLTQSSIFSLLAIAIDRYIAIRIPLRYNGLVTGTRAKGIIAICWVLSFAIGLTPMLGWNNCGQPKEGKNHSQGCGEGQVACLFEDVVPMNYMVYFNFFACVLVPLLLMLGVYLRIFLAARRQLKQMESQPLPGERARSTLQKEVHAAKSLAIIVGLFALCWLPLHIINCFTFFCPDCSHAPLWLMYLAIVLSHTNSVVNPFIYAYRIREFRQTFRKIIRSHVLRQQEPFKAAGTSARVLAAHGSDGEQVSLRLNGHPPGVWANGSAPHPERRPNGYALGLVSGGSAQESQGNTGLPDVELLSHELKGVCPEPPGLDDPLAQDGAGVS

In the case of `CCCCn1c(=O)c2[nH]c(C34CCC(C(=O)NCCNC(=O)CCNC(=O)c5ccc(OC(=O)CCCCC[N+]6=C(/C=C/C=C/C=C7/N(C)c8ccc(S(=O)(=O)O)cc8C7(C)C)C(C)(C)c7cc(S(=O)(=O)[O-])ccc76)c(F)c5)(CC3)CC4)nc2n(CCCC)c1=O` [Compound 11, 1-(6-(4-((3-((2-(4-(1,3-Dibutyl-2,6-dioxo-2,3,6,7-tetrahydro-1H-purin-8-yl)bicyclo[2.2.2]octane-1-carboxamido)ethyl)amino)-3-oxopropyl)carbamoyl)-2-fluorophenoxy)-6-oxohexyl)-3,3-dimethyl-2-((1E,3E)-5-((E)-1,3,3-trimethyl-5-sulfoindolin-2-ylidene)penta-1,3-dien-1-yl)-3H-indol-1-ium-5-sulfonate], the “change in BRET signal after addition of 10 μM DPCPX” value [1] is reported as “very little change in the BRET signal”, the Kd ([2]; HEK293T cells stably expressing NL-hA2BAR, read-out: affinity values pKD, NL-hA2BAR (converted)) is reported as greater than 1000 nM and the “BRET signal detected at NL-A2BAR” value ([2]; concentrations tested 0–500 nM) is reported as “minimal BRET signal”. The Kd ([3]; HEK293T cells stably expressing rat NanoLuc-A1AR, mean ± SEM, read-out: affinity values pKD, NL-rA1AR (converted)) was 9.12 nM and the Kd ([3]; supplementary CSV, read-out: AFFINITY (A1AR_rat) pKD (converted)) was 10.2 nM.
`CCCCn1c(=O)c2[nH]c(C34CCC(C(=O)NCCNC(=O)CCNC(=O)c5ccc(OC(=O)CCC(=O)NCCOCCOCCNC(=O)O[C@H]6CC/C=C/CCC6)c(F)c5)(CC3)CC4)nc2n(CCCC)c1=O` [Compound 12, 4-((3-((2-(4-(1,3-Dibutyl-2,6-dioxo-2,3,6,7-tetrahydro-1H-purin-8-yl)bicyclo[2.2.2]octane-1-carboxamido)ethyl)amino)-3-oxopropyl)carbamoyl)-2-fluorophenyl (R,E)-1-(Cyclooct-4-en-1-yloxy)-1,12-dioxo-5,8-dioxa-2,11-diazapentadecan-15-oate] gave a Ki [4] of 1380 nM.
